Assay results reported in ChEMBL document CHEMBL1143702, “Synthesis and biological evaluation of (+/-)-abyssinone II and its analogues as aromatase inhibitors for chemoprevention of breast cancer” (J Med Chem, 2007).

Target: T1, Aromatase (Homo sapiens, UniProt P11511)
T1 sequence (P11511 whole entry): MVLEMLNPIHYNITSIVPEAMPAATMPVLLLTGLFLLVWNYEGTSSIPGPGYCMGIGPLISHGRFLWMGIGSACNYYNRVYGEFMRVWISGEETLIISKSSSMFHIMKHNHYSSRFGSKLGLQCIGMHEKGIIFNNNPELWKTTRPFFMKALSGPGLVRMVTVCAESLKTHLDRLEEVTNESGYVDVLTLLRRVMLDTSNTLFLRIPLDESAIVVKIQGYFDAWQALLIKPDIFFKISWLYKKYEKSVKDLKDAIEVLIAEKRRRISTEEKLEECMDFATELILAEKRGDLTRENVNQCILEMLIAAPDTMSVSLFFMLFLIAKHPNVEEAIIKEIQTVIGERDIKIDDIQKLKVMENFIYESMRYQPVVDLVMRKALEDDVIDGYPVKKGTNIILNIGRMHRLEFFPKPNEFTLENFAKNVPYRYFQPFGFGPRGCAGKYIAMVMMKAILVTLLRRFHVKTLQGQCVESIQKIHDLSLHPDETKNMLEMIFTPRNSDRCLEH
Description: Inhibition of human aromatase

Row | Compound | IC50
1 | COc1ccc(C(=O)/C=C/c2ccc(OCC=C(C)C)cc2)c(O)c1 | > 271 µM
2 | COCOc1ccc(C(=O)/C=C/c2ccc(OCOC)c(CC=C(C)C)c2)c(O)c1 | > 242 µM
